Values joined by “and” are separate entries in the source; they are usually repeats but may differ in a detail not shown here. Identical values can stand only once. “Also recorded” adds a separate entry of the source.
Assay: Phase 1b MAD plasma pharmacokinetics, non-compartmental analysis
Type: in vivo, human
Source text: Methods: All study procedures were approved by the IRB, and informed consent was obtained. Three cohorts of volunteers 45-80 years of age with well-controlled comorbidities (NOAD) and one cohort of AD patients diagnosed with cognitive impairment consistent with prodromal AD per International Working Group criteria or mild AD per National Institute on Aging—Alzheimer's Association criteria (n=6 active, 2 placebo per cohort) were enrolled. Participants were admitted to the study site for the duration of the dosing and returned 7-12 days after the last dose for a safety visit. Participants received NTRX-07 (10, 30, or 90 mg) or a placebo in a double-blinded randomization orally once daily for seven days. Subjects were assessed for changes in vital signs, including maneuvers to induce lightheadedness, electrocardiograms, 24-hour electroencephalograms (EEG), and safety laboratory studies. The second cohort returned and received a single repeat dose after a standard high-fat meal. The AD cohort also underwent cognitive testing and had blood samples for biomarkers drawn. Subjects had PK sampling done after the first and final dose of the study drug. An independent safety review committee conducted a blinded safety review of adverse events and plasma levels between each cohort.
All subjects had PK sampling done after the first and final dose of the study drug.
Raw bioanalytical data were received from Nuvisan following analysis of plasma samples from each of four cohorts. PK parameters were calculated by noncompartmental analysis using standard equations. Specifically, area under the plasma concentration versus time curve (AUC) was calculated using the trapezoid rule. Maximal plasma concentration (Cmax) and time of maximal plasma concentration (Tmax) were taken directly from the data. Clearance divided by bioavailability (Cl/F) was calculated as the dose divided by the AUC. Apparent volume of distribution over bioavailability (Vd/F) was calculated as dose divided by Cmax.
With oral administration of the dose every 24 hours for 7 days, blood samples were taken over a 24-hour interval on Days 1 and 7 and before and after dosing on Day 3.
Raw bioanalytical data were received from Nuvisan on Oct. 27, 2022. […] Specifically, area under the plasma concentration versus time curve (AUC) was calculated using the trapezoid rule. Maximal plasma concentration (Cmax) and time of maximal plasma concentration (Tmax) were taken directly from the data. Clearance divided by bioavailability (Cl/F) was calculated as the dose divided by the AUC. Apparent volume of distribution over bioavailability (Vd/F) was calculated as dose divided by Cmax.
Raw bioanalytical data were received from Nuvisan on Nov. 24, 2022. […] Specifically, area under the plasma concentration versus time curve (AUC) was calculated using the trapezoid rule. Maximal plasma concentration (Cmax) and time of maximal plasma concentration (Tmax) were taken directly from the data. Clearance divided by bioavailability (Cl/F) was calculated as the dose divided by the AUC. Apparent volume of distribution over bioavailability (Vd/F) was calculated as dose divided by Cmax.
Raw bioanalytical data were received from Nuvisan on Dec. 19, 2022. […] Specifically, area under the plasma concentration versus time curve (AUC) was calculated using the trapezoid rule. Maximal plasma concentration (Cmax) and time of maximal plasma concentration (Tmax) were taken directly from the data. Clearance divided by bioavailability (Cl/F) was calculated as the dose divided by the AUC. Apparent volume of distribution over bioavailability (Vd/F) was calculated as dose divided by Cmax.
Raw bioanalytical data were received from Nuvisan on Jun. 30, 2023. […] Specifically, area under the plasma concentration versus time curve (AUC) was calculated using the trapezoid rule. Maximal plasma concentration (Cmax) and time of maximal plasma concentration (Tmax) were taken directly from the data. […]

[1] = Table 9: Cohort A, 10 mg QD oral, Day 1, individual subjects
[2] = Table 10: Cohort A, 10 mg QD oral, Day 7, individual subjects
[3] = Table 11: Cohort B, 30 mg QD oral, Day 1, individual subjects
[4] = Table 12: Cohort B, 30 mg QD oral, Day 7, individual subjects
[5] = Table 13: Cohort B Fed, 30 mg oral, fed state, individual subjects
[6] = Table 14: Cohort C, 90 mg QD oral, Day 1, individual subjects
[7] = Table 15: Cohort C, 90 mg QD oral, Day 7, individual subjects
[8] = Table 16: Cohort D (AD), 90 mg QD oral, Day 1, individual subjects
[9] = Table 17: Cohort D (AD), 90 mg QD oral, Day 7, individual subjects

CC1(Cc2ccccc2)COc2cc(C(=O)N3CCCCC3)ccc21 (centres unmarked) [NTRX-07, 3-benzyl-3-methyl-2,3-dihydrobenzofuran-6-carboxylic acid-piperidine amide]
Food effect on Cmax (30 mg after standard high-fat meal vs fasted): decreased Cmax; also recorded: muting of Cmax
Plasma levels vs target / predicted efficacious levels (90 mg dose, allometric scaling of preclinical data): within the target ranges; also recorded: Blood levels equivalent to those that were efficacious in animal models of AD; also recorded: consistent with levels predicted to be efficacious
Dose linearity of PK (10-90 mg QD): PK is linear across this dose range
Dose linearity of PK (interim analyses) (40, 120 and 360 mg SDD QD doses): Good dose linearity; also recorded: linear; also recorded: Dose linearity was observed
Accumulation over seven days of dosing (Cohort A, 40 mg SDD QD): little or no accumulation
Accumulation over seven days of dosing (Cohort B, 120 mg SDD QD): little or no accumulation
Accumulation over seven days of dosing (Cohort C, 360 mg SDD QD): little or no accumulation
Average of Cl/F (Cohort D AD patients, 90 mg QD oral, Day 1, mean ± SD): 62 ± 19 L/h
AUClast [1]: 31.6 ng·h/mL and 66.2 ng·h/mL and 131.4 ng·h/mL and 33.4 ng·h/mL and 126.9 ng·h/mL and 83.1 ng·h/mL
Cl/F [1]: 316.3 L/h and 151.1 L/h and 76.1 L/h and 299.0 L/h and 78.8 L/h and 120.4 L/h
Cmax [1]: 24.2 ng/mL and 45.0 ng/mL and 36.7 ng/mL and 18.2 ng/mL and 52.6 ng/mL and 37.0 ng/mL
Tmax [1]: 1.0 h
Cl/F (Table 9: Cohort A, 10 mg QD oral, Day 1, mean ± S.D.): 174 ± 108 L/h
AUC24 h [2]: 47.8 ng·h/mL and 88.4 ng·h/mL and 223.8 ng·h/mL and 39.5 ng·h/mL and 80.4 ng·h/mL and 62.9 ng·h/mL
Cl/F [2]: 209.3 L/h and 113.2 L/h and 44.7 L/h and 253.4 L/h and 124.4 L/h and 158.9 L/h
Cmax [2]: 29.6 ng/mL and 39.4 ng/mL and 63.6 ng/mL and 19.6 ng/mL and 46.7 ng/mL and 27.1 ng/mL
Tmax [2]: 1.0 h
Cl/F (Table 10: Cohort A, 10 mg QD oral, Day 7, mean ± S.D.): 151 ± 74 L/h
AUClast [3]: 141.9 ng·h/mL and 462.4 ng·h/mL and 716.1 ng·h/mL and 369.3 ng·h/mL and 222.6 ng·h/mL and 92.5 ng·h/mL and 293.8 ng·h/mL
Cl/F [3]: 211.4 L/h and 64.9 L/h and 41.9 L/h and 81.2 L/h and 134.7 L/h and 324.4 L/h and 102.1 L/h
Cmax [3]: 60.8 ng/mL and 93.9 ng/mL and 209 ng/mL and 127 ng/mL and 153 ng/mL and 47.9 ng/mL and 70.6 ng/mL
Tmax [3]: 1.0 h (3×) and 2.0 h
Cl/F (Table 11: Cohort B, 30 mg QD oral, Day 1, mean ± S.D.): 137 ± 99 L/h
AUClast [4]: 113 ng·h/mL and 581 ng·h/mL and 286 ng·h/mL and 212 ng·h/mL and 61 ng·h/mL and 166 ng·h/mL
Cl/F [4]: 265.0 L/h and 51.7 L/h and 105.0 L/h and 141.2 L/h and 492.7 L/h and 181.3 L/h
Cmax [4]: 92.9 ng/mL and 236 ng/mL and 127 ng/mL and 186 ng/mL and 42.4 ng/mL and 37.9 ng/mL
Tmax [4]: 1 h
Cl/F (Table 12: Cohort B, 30 mg QD oral, Day 7, mean ± S.D.): 206 ± 176 L/h
AUClast [5]: 421 ng·h/mL and 944 ng·h/mL and 471 ng·h/mL and 347 ng·h/mL and 110 ng·h/mL and 312 ng·h/mL and 124 ng·h/mL and 364 ng·h/mL
Cl/F [5]: 71.2 L/h and 31.8 L/h and 63.7 L/h and 86.4 L/h and 272.1 L/h and 96.3 L/h and 242.3 L/h and 82.5 L/h
Cmax [5]: 42 ng/mL and 95.5 ng/mL and 39.6 ng/mL and 32.3 ng/mL and 66.8 ng/mL and 20.3 ng/mL and 58.4 ng/mL
Tmax [5]: 1 h (2×) and 3 h (2×) and 1.5 h (3×) and 6 h
Cl/F (Table 13: Cohort B Fed, 30 mg oral, fed state, mean ± S.D.): 123 ± 94 L/h
AUC24 h [6]: 1629 ng·h/mL and 857 ng·h/mL and 925 ng·h/mL and 657 ng·h/mL and 1730 ng·h/mL and 1807 ng·h/mL
Cl/F [6]: 55.2 L/h and 105.1 L/h and 97.3 L/h and 137.0 L/h and 52.0 L/h and 49.8 L/h
Cmax [6]: 449 ng/mL and 350 ng/mL and 337 ng/mL and 92.4 ng/mL and 713 ng/mL and 456 ng/mL
Tmax [6]: 1.5 h (3×) and 8 h and 1 h
Cl/F (Table 14: Cohort C, 90 mg QD oral, Day 1, mean ± S.D.): 83 ± 36 L/h
AUC24 h [7]: 783 ng·h/mL and 604 ng·h/mL and 318 ng·h/mL and 516 ng·h/mL and 876 ng·h/mL and 1349 ng·h/mL
Cl/F [7]: 115.0 L/h and 149.1 L/h and 283.5 L/h and 174.4 L/h and 102.7 L/h and 66.7 L/h
Cmax [7]: 167 ng/mL and 230 ng/mL and 155 ng/mL and 114 ng/mL and 105 ng/mL and 361 ng/mL
Tmax [7]: 2 h and 1.5 h and 3 h
Cl/F (Table 15: Cohort C, 90 mg QD oral, Day 7, mean ± S.D.): 149 ± 76 L/h
AUClast [8]: 1004 ng·h/mL and 1255 ng·h/mL and 2727 ng·h/mL and 1349 ng·h/mL and 1580 ng·h/mL and 1422 ng·h/mL
Cl/F [8]: 89.6 L/h and 71.7 L/h and 33.0 L/h and 66.7 L/h and 57.0 L/h and 63.3 L/h
Cmax [8]: 234 ng/mL and 491 ng/mL and 685 ng/mL and 435 ng/mL and 434 ng/mL and 587 ng/mL
Tmax [8]: 2 h and 1 h (2×) and 1.5 h
Cl/F (Table 16: Cohort D (AD), 90 mg QD oral, Day 1, mean ± S.D.): 64 ± 19 L/h
AUC24 h [9]: 1067 ng·h/mL and 994 ng·h/mL and 856 ng·h/mL and 608 ng·h/mL and 689 ng·h/mL
Cl/F [9]: 144.6 L/h and 84.4 L/h and 90.5 L/h and 105.2 L/h and 148.0 L/h and 130.6 L/h

Source: patent publication US20250082624A1, “METHODS OF TREATING COGNITIVE IMPAIRMENT” (NeuroTherapia, Inc., priority 2023, published 2025)
